Assay results published in ChEMBL document CHEMBL5360537, “From lead to clinic: A review of the structural design of P2X7R antagonists” (Eur J Med Chem, 2023).

Experiments:
[1] = target: T1, P2X purinoceptor 7 (Mus musculus, UniProt Q9Z1M0); test: Antagonist activity at P2X7 receptor in mouse Peritoneal macrophage cells assessed as reduction in ATP induced IL-1 beta release; type: cell-based
T1 sequence (Q9Z1M0 whole entry): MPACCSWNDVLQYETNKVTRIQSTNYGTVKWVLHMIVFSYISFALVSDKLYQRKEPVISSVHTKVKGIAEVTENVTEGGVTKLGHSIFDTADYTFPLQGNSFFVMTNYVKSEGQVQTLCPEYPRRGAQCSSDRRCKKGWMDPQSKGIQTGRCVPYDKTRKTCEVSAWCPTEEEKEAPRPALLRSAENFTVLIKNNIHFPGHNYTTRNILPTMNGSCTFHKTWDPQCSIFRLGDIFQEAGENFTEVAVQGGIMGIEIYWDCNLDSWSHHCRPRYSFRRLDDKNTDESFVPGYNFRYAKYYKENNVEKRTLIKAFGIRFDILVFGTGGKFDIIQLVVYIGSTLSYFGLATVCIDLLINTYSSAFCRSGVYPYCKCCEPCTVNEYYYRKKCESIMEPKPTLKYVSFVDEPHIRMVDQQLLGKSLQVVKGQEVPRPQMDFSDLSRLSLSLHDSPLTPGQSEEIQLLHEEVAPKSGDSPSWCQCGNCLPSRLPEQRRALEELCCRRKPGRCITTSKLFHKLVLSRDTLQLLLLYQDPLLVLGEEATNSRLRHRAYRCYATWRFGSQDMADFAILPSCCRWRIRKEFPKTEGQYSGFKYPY

[2] = target: T2, P2X purinoceptor 7 (Homo sapiens, UniProt Q99572); test: Antagonist activity at P2X7 receptor in human THP-1 cells assessed as reduction in ATP induced IL-1 beta release; type: cell-based
T2 sequence (Q99572 whole entry): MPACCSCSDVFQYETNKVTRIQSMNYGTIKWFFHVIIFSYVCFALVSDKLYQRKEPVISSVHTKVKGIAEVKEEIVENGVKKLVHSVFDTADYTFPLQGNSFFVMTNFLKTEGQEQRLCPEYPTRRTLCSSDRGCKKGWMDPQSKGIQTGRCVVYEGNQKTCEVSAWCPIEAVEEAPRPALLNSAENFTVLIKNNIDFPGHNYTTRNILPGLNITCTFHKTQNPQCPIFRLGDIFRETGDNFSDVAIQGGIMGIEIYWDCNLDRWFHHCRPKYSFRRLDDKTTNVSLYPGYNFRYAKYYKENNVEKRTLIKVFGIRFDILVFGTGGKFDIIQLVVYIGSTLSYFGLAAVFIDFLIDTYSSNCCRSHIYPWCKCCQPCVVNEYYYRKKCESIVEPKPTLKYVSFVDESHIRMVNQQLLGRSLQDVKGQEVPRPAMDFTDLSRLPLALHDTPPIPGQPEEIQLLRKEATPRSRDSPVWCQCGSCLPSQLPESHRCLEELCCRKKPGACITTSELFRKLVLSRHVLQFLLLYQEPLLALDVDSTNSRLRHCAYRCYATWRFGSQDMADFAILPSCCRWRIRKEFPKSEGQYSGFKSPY

[3] = target: T3, P2X purinoceptor 7 (Mus musculus) (UniProt Q9Z1M0); test: Antagonist activity at P2X7 receptor in mouse Peritoneal macrophage cells assessed as ATP induced dye uptake at 10 uM relative to control; type: cell-based
T3 sequence (whole entry): T1 sequence (Q9Z1M0 whole entry)

[4] = target: T2, P2X purinoceptor 7; test: Inhibition of human P2X7 receptor transfected in HEK293 cells by calcium influx assay; type: cell-based
[5] = target: T2, P2X purinoceptor 7; test: Antagonist activity at human P2X7 receptor expressed in 1321N1 cells by FLIPR assay; type: cell-based
[6] = target: T1, P2X purinoceptor 7; test: Antagonist activity at mouse P2X7 receptor by calcium flux assay
[7] = target: T4, P2X purinoceptor 7 (Rattus norvegicus, UniProt Q64663); test: Antagonist activity at rat P2X7 receptor by calcium flux assay
T4 sequence (Q64663 whole entry): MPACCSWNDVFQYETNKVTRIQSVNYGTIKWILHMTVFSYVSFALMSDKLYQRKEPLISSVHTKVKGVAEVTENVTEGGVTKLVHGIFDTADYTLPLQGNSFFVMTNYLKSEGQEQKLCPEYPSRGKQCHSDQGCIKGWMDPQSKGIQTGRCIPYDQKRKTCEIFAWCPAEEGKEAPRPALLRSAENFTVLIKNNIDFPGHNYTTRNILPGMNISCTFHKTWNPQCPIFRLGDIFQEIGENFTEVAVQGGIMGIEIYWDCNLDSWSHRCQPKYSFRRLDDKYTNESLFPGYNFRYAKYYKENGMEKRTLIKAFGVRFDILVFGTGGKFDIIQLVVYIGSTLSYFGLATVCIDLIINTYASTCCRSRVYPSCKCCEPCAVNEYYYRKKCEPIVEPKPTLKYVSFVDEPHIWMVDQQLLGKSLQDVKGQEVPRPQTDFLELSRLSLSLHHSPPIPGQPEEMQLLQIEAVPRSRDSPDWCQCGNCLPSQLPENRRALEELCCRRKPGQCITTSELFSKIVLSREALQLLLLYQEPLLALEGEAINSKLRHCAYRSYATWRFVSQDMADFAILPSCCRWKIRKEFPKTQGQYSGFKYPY

[8] = target: T2, P2X purinoceptor 7; test: Antagonist activity at human P2X7 receptor by calcium flux assay
[9] = target: T2, P2X purinoceptor 7; test: Antagonist activity at human P2X7 receptor expressed in HEK293 by fluorescence plate reader analysis; type: cell-based
[10] = target: T2, P2X purinoceptor 7; test: Antagonist activity at human P2X7 receptor
[11] = target: T2, P2X purinoceptor 7; test: Inhibition of P2X7 (unknown origin) assessed as reduction in IL-1 beta release
[12] = target: T2, P2X purinoceptor 7; test: Inhibition of P2X7 in human THP-1cells assessed as reduction in YO-PRO-1 iodide dye uptake measured after 24 hrs by fluorescence based assay; type: cell-based

## CC1=C(C(c2ccccc2)n2cc(COCc3ccco3)nn2)C(=O)c2ccccc2C1=O (stereo not drawn)
[1]
  IC50: 145000 nM
[2]
  IC50: 140000 nM
[3]; filed as antagonist
  inhibition: 60%

## CS(=O)(=O)C1CC[C@@](F)(C(=O)NCc2ccc(Cl)cc2Cl)c2cccnc21 (stereo partly drawn)
[4]
  IC50: < 50 nM

## Cc1ccc(CO)cc1Nc1nc(=O)ccn1Cc1cc(F)c(F)c(F)c1
[5]
  IC50: 4 nM

## CC1=C(C(C)n2cc(COCc3ccco3)nn2)C(=O)c2ccccc2C1=O (stereo not drawn)
[3]
  inhibition: < 60%

## O=c1snc(Cc2c(F)cccc2Cl)n1CC1CCC(F)(F)CC1
[6]
  IC50: < 200 nM
[7]
  IC50: < 200 nM
[8]
  IC50: < 200 nM

## C[C@H]1CCC[C@@](O)(CNC(=O)c2cn(CCC(F)F)c3cccc(Cl)c23)C1
[9]
  IC50: < 10 nM

## O=C(NCc1ccc(Cl)cc1Cl)[C@@]1(F)CC[C@](O)(CN2CC(O)C2)c2ncccc21
[4]
  IC50: < 50 nM

## Cc1c(Cl)cccc1Nc1nc(=O)cc2n1C(c1ccccc1)CO2 (stereo not drawn)
[10]
  IC50: < 10 nM

## COCCn1cc(C(=O)NC[C@@]2(O)CCCC(F)(F)C2)c2c(Cl)cccc21
[9]
  IC50: < 10 nM

## COc1ccc(Nc2nc(=O)c3nn(C)cc3n2Cc2cc(F)c(F)c(F)c2)c(C)c1
[10]
  IC50: < 10 nM

## COc1nc(C)c(Nc2nc(=O)c3[nH]cnc3n2Cc2ccc(F)c(F)c2)cc1C
[10]
  IC50: < 10 nM

## O=c1onc(CN2CCC(F)(F)CC2)n1CC1CCC(F)(F)CC1
[6]
  IC50: > 10000 nM
[7]
  IC50: > 10000 nM
[8]
  IC50: > 10000 nM

## COc1cc(Nc2nc(=O)c(F)cn2Cc2cc(F)c(F)c(F)c2)c(C)c(F)c1OC
[5]
  IC50: < 10 nM

## O=c1onc(Cc2c(F)cccc2Cl)n1CC1CCCCCC1
[6]
  IC50: 200 nM
[7]
  IC50: < 200 nM
[8]
  IC50: < 200 nM

## Cn1nccc1Nc1nc(=O)c(F)cn1Cc1cc(F)c(F)c(F)c1
[5]
  IC50: > 100 nM

## CCc1cccc(Nc2nc(=O)c3[nH]cnc3n2Cc2ccc(F)cc2)c1CC
[10]
  IC50: < 10 nM

## O=c1onc(Cc2ccc(Cl)cc2Cl)n1CC1CCC(F)(F)CC1
[6]
  IC50: 200 nM
[7]
  IC50: < 200 nM
[8]
  IC50: < 200 nM

## Cc1ccc(-c2ncco2)cc1Nc1nc(=O)cnn1Cc1cc(F)c(F)c(F)c1
[5]
  IC50: 2.4 nM

## C[C@H](CO)n1ccc2c(NC(=O)CC34CC5CC(CC(C5)C3)C4)cccc2c1=O
[11]
  IC50: 1 nM
[12]
  IC50: 520 nM

## CC1CC(F)(F)CCN1Cn1c(Cc2c(F)cccc2Cl)noc1=O (stereo not drawn)
[6]
  IC50: < 200 nM
[7]
  IC50: < 200 nM
[8]
  IC50: < 200 nM

## O=C1CO[C@]2(CC[C@@](F)(C(=O)NCc3ccc(Cl)cc3Cl)c3cccnc32)CN1
[4]
  IC50: < 50 nM

## COc1ccc(Nc2nc(=O)cc3n2C(c2ccccc2)CN3C)c(C)c1 (stereo not drawn)
[10]
  IC50: < 10 nM

## Cc1noc(C)c1Cc1noc(=O)n1CC1CCC(F)(F)CC1
[6]
  IC50: 1000 nM
[7]
  IC50: 200 nM
[8]
  IC50: < 200 nM

## C[C@@H](CO)n1ccc2c(NC(=O)CC34CC5CC(CC(C5)C3)C4)cccc2c1=O
[11]
  IC50: 0.15 nM
[12]
  IC50: 107 nM

## CC1=C(C(c2ccc(Br)cc2)n2cc(COCc3ccco3)nn2)C(=O)c2ccccc2C1=O (stereo not drawn)
[3]
  inhibition: < 60%

## O=c1onc(Cc2c(F)cccc2Cl)n1CC1CC2CCC1C2 (stereo not drawn)
[6]
  IC50: 200 nM
[7]
  IC50: < 200 nM
[8]
  IC50: < 200 nM

## CC1CCCC(O)(CNC(=O)c2cn(C3COC3)c3cccc(Cl)c23)C1 (stereo not drawn)
[9]
  IC50: < 10 nM

## Cc1nc2cc(C)c(Nc3nc(=O)c4[nH]cnc4n3Cc3ccc(F)cc3)cc2s1
[10]
  IC50: 11 nM

## COc1ccc(Cc2noc(=O)n2CC2CCC(F)(F)CC2)cc1
[6]
  IC50: 1000 nM
[7]
  IC50: 1000 nM
[8]
  IC50: 1000 nM

## Cc1nc2cc(C)c(Nc3nc(=O)cc4n3C(c3ccc(F)cc3)CC4)cc2s1 (stereo not drawn)
[10]
  IC50: < 10 nM

## Cc1ncccc1Cc1noc(=O)n1CC1CCC(F)(F)CC1
[6]
  IC50: 1000 nM
[7]
  IC50: 1000 nM
[8]
  IC50: 200 nM
